Laboratory results as given in PMC3026871 (Cancer chemotherapy and pharmacology, 2010).
Marks after values point to notes of the source that are not given here.

Key:
[1] = system: patients with advanced solid tumors; assay: Clinical response; format: in vivo, human; conditions: RECIST
[2] = ref Data on file, Millennium; cited from earlier work
[3] = system: alpha-1 subunit of the GABA-A receptor; conditions: ref Data on file, Millennium; cited from earlier work
[4] = ref Data on file, Millennium, cited from earlier work
human tumor xenografts = conditions: cited from earlier work
[5] = system: patients with advanced solid tumors; assay: Phase 1 safety: drug-related adverse events; format: in vivo
[6] = Plasma pharmacokinetics in patients; conditions: for Cmin, Mean (SD): 6 hours after the second dose
[7] = QID-7D 25 mg, Day 7, Dose 2, steady state, n=6
[8] = QID-7D 35 mg, Day 7, Dose 2, steady state, n=3
[9] = QID-7D 45 mg, Day 7, Dose 2, steady state, n=3
[10] = QID-7D 55 mg, Day 7, Dose 2, steady state, n=4

## O=C(O)c1ccc(Nc2ncc3c(n2)-c2ccc(Cl)cc2C(c2c(F)cccc2F)=NC3)cc1 [MLN8054]
[1]; 3 patients
  patients with stable disease for greater than 6 cycles: 5%
[1]; 5–80 mg per day for 7, 14 or 21 days
  complete or partial responses: No complete or partial responses were seen
[1]; nine patients, all cohorts
  patients with stable disease for at least 4 cycles: 15%
[2]
  dose-limiting toxicities (DLTs) in preclinical toxicology studies: myelosuppression and gastrointestinal toxicity
[3]
  binding to the alpha-1 subunit of the GABA-A receptor: high-affinity binding
[4]; human liver S9 fractions
  major phase 1 biotransformation pathway: Hydroxylation of the azepine moiety
  predominant mechanism of biotransformation: Glucuronidation of the carboxylate moiety of MLN8054 to an acyl glucuronide
[4]
  enzymes mediating biotransformation: Glucuronidation was mediated by UGT1 and UGT2 and hydroxylation by CYP1A2, 2C9, 2C19, 2D6, and 3A4
Human tumor xenografts
  antitumor activity in xenograft models: antitumor activity in human tumor xenografts including colon, prostate, and lung cancer models
Human tumor xenografts; maintained for 8–12 hours per day, human tumor xenografts grown in mice
  plasma concentration whose maintenance is required for efficacy: ~ 2000 nM
[5]; human, in vivo
  Any drug-related adverse event, Any Grade: 55 (90)
  Any drug-related adverse event, Grade 3: 13 (21)
  Drug-related Abnormal coordination, Any Grade: 5 (8)
  Drug-related Abnormal coordination, Grade 3: 1 (2)
  Drug-related Anorexia, Any Grade: 8 (13)
  Drug-related Anorexia, Grade 3: 0 (0)
  Drug-related Asthenia, Any Grade: 6 (10)
  Drug-related Asthenia, Grade 3: 1 (2)
  Drug-related Confusion, Any Grade: 11 (18)
  Drug-related Confusion, Grade 3: 4 (7)
  Drug-related Dizziness, Any Grade: 7 (11)
  Drug-related Dizziness, Grade 3: 1 (2)
  Drug-related Fatigue, Any Grade: 15 (25)
  Drug-related Fatigue, Grade 3: 1 (2)
  Drug-related Hallucination, Any Grade: 1 (2)
  Drug-related Hallucination, Grade 3: 1 (2)
  Drug-related Hyperbilirubinemia, Any Grade: 3 (5)
  Drug-related Hyperbilirubinemia, Grade 3: 1 (2)
  Drug-related Hyperglycemia, Any Grade: 5 (8)
  Drug-related Hyperglycemia, Grade 3: 1 (2)
  Drug-related Increased blood alkaline phosphatase, Any Grade: 4 (7)
  Drug-related Increased blood alkaline phosphatase, Grade 3: 1 (2)
  Drug-related Muscular weakness, Any Grade: 5 (8)
  Drug-related Muscular weakness, Grade 3: 1 (2)
  Drug-related Nausea, Any Grade: 10 (16)
  Drug-related Nausea, Grade 3: 0 (0)
  Drug-related Peripheral motor neuropathy, Any Grade: 1 (2)
  Drug-related Peripheral motor neuropathy, Grade 3: 1 (2)
  Drug-related Somnolence, Any Grade: 47 (77)
  Drug-related Somnolence, Grade 3: 11(18)
  Drug-related Vomiting, Any Grade: 6 (10)
  Drug-related Vomiting, Grade 3: 0 (0)
  drug-related grade 4 or 5 AE: no patient had a drug-related grade 4 or 5 AE
  grade ≥ 3 mucositis or myelosuppression: No dose studied was associated with grade ≥ 3 mucositis or myelosuppression
[5]; nine patients, none of the deaths considered drug-related
  patients who died within 21 days of the last dose: 15%
[6]; QD dosing
  dose proportionality of AUC0-24 hr and Cmax: roughly dose-proportional
[6]; QD dosing, all dose levels
  Peak-to-Trough Ratio (Cmax/Cmin): approximately 5
[6]; QD-7D 5 mg, Day 7, steady state, n=4
  Geometric Mean Peak-to-Trough Ratio (Cmax/Cmin): 4.99
[6]; QD-7D 10 mg, Day 7, steady state, n=4
  Geometric Mean Peak-to-Trough Ratio (Cmax/Cmin): 5.10
[6]; QD-7D 20 mg, Day 7, steady state, n=3
  Geometric Mean Peak-to-Trough Ratio (Cmax/Cmin): 5.09
[6]; QD-7D 30 mg, Day 7, steady state, n=6
  Geometric Mean Peak-to-Trough Ratio (Cmax/Cmin): 4.72
[6]; QD-7D 40 mg, Day 7, steady state, individual data, n=1
  Peak-to-Trough Ratio (Cmax/Cmin): 6.59 ^†
[6]; [7]
  Geometric Mean Peak-to-Trough Ratio (Cmax/Cmin): 1.58
  Cmin, Mean (SD): 720 (359) nM
[6]; [8]
  Geometric Mean Peak-to-Trough Ratio (Cmax/Cmin): 1.32
  Cmin, Mean (SD): 1464 (301) nM
[6]; [9]
  Geometric Mean Peak-to-Trough Ratio (Cmax/Cmin): 1.45
  Cmin, Mean (SD): 1139 (803) nM
[6]; [10]
  Geometric Mean Peak-to-Trough Ratio (Cmax/Cmin): 1.44
  Cmin, Mean (SD): 1802 (846) nM
[6]; QID/M-7D 55 mg, Day 7, Dose 2, steady state, n=3
  Geometric Mean Peak-to-Trough Ratio (Cmax/Cmin): 1.81
[6]; QID/M-7D 60 mg, Day 7, Dose 2, steady state, n=6
  Geometric Mean Peak-to-Trough Ratio (Cmax/Cmin): 1.80
[6]; QID/M-7D 70 mg, Day 7, Dose 2, steady state, n=3
  Geometric Mean Peak-to-Trough Ratio (Cmax/Cmin): 1.65
[6]; QID/M-7D 80 mg, Day 7, Dose 2, steady state, n=3
  Geometric Mean Peak-to-Trough Ratio (Cmax/Cmin): 1.35
[6]; QID/M-14D 60 mg, Day 14, Dose 2, steady state, n=3
  Geometric Mean Peak-to-Trough Ratio (Cmax/Cmin): 1.29
[6]; QID/M-21D 60 mg, Day 21, Dose 2, steady state, individual data, n=1
  Peak-to-Trough Ratio (Cmax/Cmin): 1.59 ^†
[6]; QID/M-21D 60 mg, days 14 and 21, 1 patient
  MLN8054 concentrations between the second and third doses: < 2000 nM
